pIC50: −log10 of the molar value. Several values for one entry are separate records, joined by “and”; a condition that tells them apart may be missing. Equal entries are not always repeated. Where two headings read alike, the source gives them in different places.
Experiments:
[1] = molecular target: T1, TDO in SW48 colorectal carcinoma cells (Homo sapiens, UniProt P48775); experiment: Cell-based assay for TDO in SW48 colorectal carcinoma cells (NFK GreenScreen); conditions: 18 hours with L-tryptophan, read-out: IC50 on TDO in cells
T1 construct: Endogenous expression of TDO has been determined in a variety of cancer cell lines; host or cells: SW48 colorectal carcinoma cells

[2] = molecular target: T2, CYP2D6 (Homo sapiens, UniProt P10635); experiment: P450-Glo CYP2D6 Luc-IP assay
[3] = molecular target: T3, CYP3A4 (Homo sapiens, UniProt P08684); experiment: P450-Glo CYP3A4 luciferin isopropylacetal (Luc-IP) assay
[4] = molecular target: T4, Recombinant TDO (Homo sapiens, UniProt P48775); experiment: Biochemical assay for TDO (NFK GreenScreen); conditions: 50 nM TDO, 200 μM L-tryptophan
T4 construct: Recombinant TDO (Seegers, N., et al.) and all other assay components were diluted in TDO reaction buffer
Outline: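 Recombinant human TDO (50 nM) preincubated with compound 60 min at room temperature in 100 mM NaH2PO4 pH 7.0, 0.02% Tween-20, with ascorbic acid. Reaction then run 15 min with 200 μM L-tryptophan (final), 0.3% DMSO. NFK product detected by NFK Green fluorescence after 3 h at 37° C; IC50 derived.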

[5] = mice treated with LM10; cited from earlier work
[6] = molecular target: T5, TDO expressed in mouse tumor cells (Mus musculus, UniProt P48776); conditions: immunocompetent mice; cited from earlier work
T5 construct: host or cells: mouse tumor cells

[7] = molecular target: T2, CYP2D6
[8] = molecular target: T3, CYP3A4

T1 sequence (P48775 whole entry): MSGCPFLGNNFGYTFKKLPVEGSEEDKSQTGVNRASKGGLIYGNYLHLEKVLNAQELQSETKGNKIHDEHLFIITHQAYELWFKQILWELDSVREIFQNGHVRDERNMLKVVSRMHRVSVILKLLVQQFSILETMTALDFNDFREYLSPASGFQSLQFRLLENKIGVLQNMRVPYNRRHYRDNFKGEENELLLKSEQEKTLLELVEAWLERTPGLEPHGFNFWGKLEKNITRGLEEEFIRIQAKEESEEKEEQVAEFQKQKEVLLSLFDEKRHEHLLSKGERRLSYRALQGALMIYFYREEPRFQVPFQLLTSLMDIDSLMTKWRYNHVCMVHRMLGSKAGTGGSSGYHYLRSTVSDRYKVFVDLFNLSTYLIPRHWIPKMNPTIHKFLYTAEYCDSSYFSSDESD
T4 sequence (P48775 whole entry): as above
T2 sequence (P10635 whole entry): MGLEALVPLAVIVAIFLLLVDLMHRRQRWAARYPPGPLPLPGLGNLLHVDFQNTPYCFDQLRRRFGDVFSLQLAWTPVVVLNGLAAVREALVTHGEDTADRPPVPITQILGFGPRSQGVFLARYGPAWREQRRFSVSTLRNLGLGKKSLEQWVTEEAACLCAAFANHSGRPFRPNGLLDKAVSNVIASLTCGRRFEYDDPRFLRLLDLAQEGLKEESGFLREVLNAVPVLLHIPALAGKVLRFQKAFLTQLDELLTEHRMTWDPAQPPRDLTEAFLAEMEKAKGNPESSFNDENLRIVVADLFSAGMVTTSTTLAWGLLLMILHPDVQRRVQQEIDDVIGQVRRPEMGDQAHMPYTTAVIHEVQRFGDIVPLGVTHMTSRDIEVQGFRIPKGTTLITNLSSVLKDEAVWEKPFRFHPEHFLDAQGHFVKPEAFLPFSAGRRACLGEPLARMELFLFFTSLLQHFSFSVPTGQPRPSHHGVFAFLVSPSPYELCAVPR
T3 sequence (P08684 whole entry): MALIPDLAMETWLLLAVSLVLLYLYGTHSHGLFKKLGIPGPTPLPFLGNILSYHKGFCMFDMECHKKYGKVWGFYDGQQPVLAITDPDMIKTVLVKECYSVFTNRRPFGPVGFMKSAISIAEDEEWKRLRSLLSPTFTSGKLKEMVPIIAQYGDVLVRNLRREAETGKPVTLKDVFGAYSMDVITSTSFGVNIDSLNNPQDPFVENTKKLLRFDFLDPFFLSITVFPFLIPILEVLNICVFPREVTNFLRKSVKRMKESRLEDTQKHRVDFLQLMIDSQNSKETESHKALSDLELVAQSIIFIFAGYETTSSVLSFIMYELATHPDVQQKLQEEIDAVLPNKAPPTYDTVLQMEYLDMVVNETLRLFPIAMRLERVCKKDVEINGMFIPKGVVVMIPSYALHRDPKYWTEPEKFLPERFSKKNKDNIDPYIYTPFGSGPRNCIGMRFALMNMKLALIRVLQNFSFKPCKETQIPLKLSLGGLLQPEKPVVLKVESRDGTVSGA
T5 sequence (P48776 whole entry): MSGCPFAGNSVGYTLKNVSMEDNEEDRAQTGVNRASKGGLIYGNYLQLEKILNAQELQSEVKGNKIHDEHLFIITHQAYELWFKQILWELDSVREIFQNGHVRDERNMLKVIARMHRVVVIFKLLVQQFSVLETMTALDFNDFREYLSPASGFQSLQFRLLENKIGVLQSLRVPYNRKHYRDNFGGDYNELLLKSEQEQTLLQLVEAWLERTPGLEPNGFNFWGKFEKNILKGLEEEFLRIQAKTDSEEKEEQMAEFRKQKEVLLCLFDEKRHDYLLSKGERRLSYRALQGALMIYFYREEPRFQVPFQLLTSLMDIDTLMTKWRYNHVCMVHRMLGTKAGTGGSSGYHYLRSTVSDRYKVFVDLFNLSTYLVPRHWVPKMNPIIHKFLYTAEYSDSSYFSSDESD

Row | pIC50 [1] | pIC50 [2] | pIC50 [3] | pIC50 [4] | pIC50 [7] | pIC50 [8] | Compound | Signs of toxicity in the liver or any other organs [5] | Effect on TDO-mediated prevention of tumor cell rejection [6]
1 | ≥ 6.30 and 6.30 to 6.70 | < 5.00 | < 5.00 | > 6.00 | – | – | CN1CCN(CC(=O)Nc2ccc(-c3c[nH]c4cc(F)ccc34)cc2)CC1 [Example 109, N-[4-(6-fluoro-1H-indol-3-yl)phenyl]-2-(4-methylpiperazin-1-yl)acetamide] | – | –
2 | ≥ 6.30 and 6.30 to 6.70 | < 5.00 | 5.00 to 5.30 | > 6.00 | – | – | C[C@H]1CNCC[C@H]1C(=O)Nc1ccc(-c2c[nH]c3cc(F)ccc23)cc1 [Example 110, (3R,4R)—N-[4-(6-fluoro-1H-indol-3-yl)phenyl]-3-methyl-piperidine-4-carboxamide] | – | –
3 | ≥ 6.30 and 6.30 to 6.70 | < 5.00 | < 5.00 | 5.30 to 6.00 | – | – | COc1cc(-c2c[nH]c3cc(F)ccc23)ccc1C(=O)N[C@H](C)CO [Example 111, 4-(6-Fluoro-1H-indol-3-yl)-N-[(1R)-2-hydroxy-1-methyl-ethyl]-2-methoxy-benzamide] | – | –
4 | ≥ 6.30 and 6.30 to 6.70 | < 5.00 | < 5.00 | > 6.00 | – | – | NC(=O)CNC(=O)c1ccc(-c2c[nH]c3cc(F)ccc23)cc1 [Example 112, N-(2-amino-2-oxo-ethyl)-4-(6-fluoro-1H-indol-3-yl)benzamide] | – | –
5 | ≥ 6.30 and 6.30 to 6.70 | < 5.00 | < 5.00 | 5.30 to 6.00 | – | – | CC(=O)NCCNC(=O)c1ccc(-c2c[nH]c3cc(F)ccc23)cc1 [Example 113, N-(2-acetamidoethyl)-4-(6-fluoro-1H-indol-3-yl)benzamide] | – | –
6 | ≥ 6.30 and 6.30 to 6.70 | < 5.00 | < 5.00 | > 6.00 | – | – | O=C(NCCN1C[C@H](O)[C@@H](O)C1)c1ccc(-c2c[nH]c3cc(F)ccc23)cc1Cl [Example 115, 2-Chloro-N-[2-[(3S,4S)-3,4-dihydroxypyrrolidin-1-yl]ethyl]-4-(6-fluoro-1H-indol-3-yl)benzamide] | – | –
7 | ≥ 6.30 and 6.30 to 6.70 | < 5.00 | < 5.00 | > 6.00 | – | – | O=C(NCCN1C[C@@H](O)[C@H](O)C1)c1ccc(-c2c[nH]c3cc(F)ccc23)cc1Cl [Example 116, 2-Chloro-N-[2-[(3R,4R)-3,4-dihydroxypyrrolidin-1-yl]ethyl]-4-(6-fluoro-1H-indol-3-yl)benzamide] | – | –
8 | ≥ 6.30 and 6.30 to 6.70 | 5.00 to 5.30 | 5.00 to 5.30 | > 6.00 | – | – | C[C@H](CO)NC(=O)c1ccc(-c2c[nH]c3cc(F)ccc23)c(F)c1 [Example 117, 3-Fluoro-4-(6-fluoro-1H-indol-3-yl)-N-[(1R)-2-hydroxy-1-methyl-ethyl]benzamide] | – | –
9 | ≥ 6.70 | < 5.00 | < 5.00 | > 6.00 | – | – | O=C(NC1CCCNC1)c1ccc(-c2c[nH]c3cc(F)ccc23)cc1 (stereo not drawn) [Example 118, 4-(6-Fluoro-1H-indol-3-yl)-N-(3-piperidyl)benzamide] | – | –
10 | ≥ 6.30 and 6.30 to 6.70 | < 5.00 | 5.00 to 5.30 | 5.30 to 6.00 | – | – | CC(=O)N1CCCC(NC(=O)c2ccc(-c3c[nH]c4cc(F)ccc34)cc2)C1 (stereo not drawn) [Example 119, N-(1-acetyl-3-piperidyl)-4-(6-fluoro-1H-indol-3-yl)benzamide] | – | –
11 | ≥ 6.30 and 6.30 to 6.70 | < 5.00 | 5.00 to 5.30 | > 6.00 | – | – | COC(=O)C(NC(=O)c1ccc(-c2c[nH]c3cc(F)ccc23)cc1)C1CCNCC1 (stereo not drawn) [Example 122, Methyl 2-[[4-(6-fluoro-1H-indol-3-yl)benzoyl]amino]-2-(4-piperidyl)acetate] | – | –
12 | ≥ 6.70 | < 5.00 | 5.00 to 5.30 | > 6.00 | – | – | C[C@@H](CO)NC(=O)c1ccc(-c2c[nH]c3cc(F)ccc23)cc1F [Example 123, 2-Fluoro-4-(6-fluoro-1H-indol-3-yl)-N-[(1S)-2-hydroxy-1-methyl-ethyl]benzamide] | – | –
13 | ≥ 6.70 | < 5.00 | 5.00 to 5.30 | > 6.00 | – | – | CN(C)CCCNC(=O)c1ccc(-c2c[nH]c3cc(F)ccc23)cc1F [Example 124, N-[3-(dimethylamino)propyl]-2-fluoro-4-(6-fluoro-1H-indol-3-yl)benzamide] | – | –
14 | ≥ 6.70 | < 5.00 | 5.00 to 5.30 | > 6.00 | – | – | O=C(N[C@H]1CCCNC1)c1ccc(-c2c[nH]c3cc(F)ccc23)cc1F [Example 125, 2-Fluoro-4-(6-fluoro-1H-indol-3-yl)-N-[(3S)-3-piperidyl]benzamide] | – | –
15 | ≥ 6.30 and 6.30 to 6.70 | < 5.00 | < 5.00 | > 6.00 | – | – | Cc1cc(C(=O)NCCCN(C)C)ccc1-c1c[nH]c2cc(F)ccc12 [Example 127, N-[3-(dimethylamino)propyl]-4-(6-fluoro-1H-indol-3-yl)-3-methyl-benzamide] | – | –
16 | ≥ 6.30 and 6.30 to 6.70 | < 5.00 | < 5.00 | > 6.00 | – | – | C[C@H](CO)NC(=O)c1ccc(-c2c[nH]c3cc(F)ccc23)cc1F [Example 129, 2-Fluoro-4-(6-fluoro-1H-indol-3-yl)-N-[(1R)-2-hydroxy-1-methyl-ethyl]benzamide] | – | –
17 | ≥ 6.30 and 6.30 to 6.70 | < 5.00 | < 5.00 | > 6.00 | – | – | O=C(Nc1ccc(-c2c[nH]c3cc(F)ccc23)cc1)[C@@H]1CCCNC1 [Example 131, (3R)—N-[4-(6-fluoro-1H-indol-3-yl)phenyl]piperidine-3-carboxamide] | – | –
18 | ≥ 6.30 and 6.30 to 6.70 | < 5.00 | < 5.00 | 5.30 to 6.00 | – | – | NS(=O)(=O)N1CCCC(NC(=O)c2ccc(-c3c[nH]c4cc(F)ccc34)cc2)C1 (stereo not drawn) [Example 132, 4-(6-Fluoro-1H-indol-3-yl)-N-(1-sulfamoyl-3-piperidyl)benzamide] | – | –
19 | ≥ 6.70 | < 5.00 | < 5.00 | 5.30 to 6.00 | – | – | O=C(NCCC(F)(F)F)c1ccc(-c2c[nH]c3cc(F)ccc23)cc1 [Example 134, 4-(6-Fluoro-1H-indol-3-yl)-N-(3,3,3-trifluoropropyl)benzamide] | – | –
20 | ≥ 6.70 | < 5.00 | 5.00 to 5.30 | > 6.00 | – | – | CN1CCN(CCCNC(=O)c2ccc(-c3c[nH]c4cc(F)ccc34)cc2)CC1 [Example 135, 4-(6-Fluoro-1H-indol-3-yl)-N-[3-(4-methylpiperazin-1-yl)propyl]benzamide] | – | –
21 | ≥ 6.30 and 6.30 to 6.70 | < 5.00 | < 5.00 | > 6.00 | – | – | COc1cc(-c2c[nH]c3cc(F)ccc23)ccc1C(=O)N[C@@H](C)CO [Example 136, 4-(6-Fluoro-1H-indol-3-yl)-N-[(1S)-2-hydroxy-1-methyl-ethyl]-2-methoxy-benzamide] | – | –
22 | ≥ 6.70 | < 5.00 | < 5.00 | > 6.00 | – | – | COc1cc(-c2c[nH]c3cc(F)ccc23)ccc1C(=O)NCCCN(C)C [Example 137, N-[3-(dimethylamino)propyl]-4-(6-fluoro-1H-indol-3-yl)-2-methoxy-benzamide] | – | –
23 | – | – | – | – | – | – | Fc1ccc2c(/C=C/c3nn[nH]n3)c[nH]c2c1 [LM10] | did not show any signs of toxicity | reverted
24 | – | – | – | – | < 5.00 | 5.00 to 5.30 | N-(2-diethylaminoethyl)-4-(6-fluoro-1H-indol-3-yl)benzamide [Example 81] | – | –
25 | – | – | – | – | < 5.00 | < 5.00 | N-(3,3-difluorocyclobutyl)-4-(6-fluoro-1H-indol-3-yl)benzamide [Example 114] | – | –
26 | – | – | – | – | < 5.00 | < 5.00 | N-[3-(dimethylamino)propyl]-4-(6-fluoro-1H-indol-3-yl)benzamide [Example 8] | – | –
27 | – | – | – | – | < 5.00 | < 5.00 | N-cyclopropyl-4-(6-fluoro-1H-indol-3-yl)benzamide [Example 86] | – | –

Row | Compound | pIC50 [1] | pIC50 [2] | pIC50 [3] | pIC50 [4] | pIC50 [7] | pIC50 [8] | Signs of toxicity in the liver or any other organs [5] | Effect on TDO-mediated prevention of tumor cell rejection [6]
28 | O=C(N[C@H]1CN2CCC1CC2)c1ccc(-c2c[nH]c3cc(F)ccc23)cc1 [Example 133, 4-(6-Fluoro-1H-indol-3-yl)-N-[(3R)-quinuclidin-3-yl]benzamide] | ≥ 6.70 | < 5.00 | < 5.00 | > 6.00 | – | – | – | –
